Measurements: ChEMBL document CHEMBL4665541, “Search for new therapeutic options for the uncommon pathogen Mycobacterium chimaera: an open drug discovery approach” (Lancet Microbe, 2021)

What follows are substances tested on Mycobacterium intracellulare subsp. chimaera (assay: (§1) Inhibition of mycobacterial growth using the resazurin microtitre cell viability assay (REMA), compounds at final concentration of 20 µM (2% v/v DMSO). Hits were classed as compounds that inhibited bacterial growth by 70% or more compared to drug-free controls.). Conditions: NCTC13781.
Assay type: functional, organism-based
Parameters: conc 20 uM
For MMV659010, the Survival was 91.7%.
With MMV661713 the Survival was 47.5%.
In the case of MMV663250, the Survival is reported as 116%.
MMV667494 gave a Survival of 95.7%.
Substance MMV668727 has a Survival of 96.8%.
For MMV671636, the Survival was 85.9%.
Work on MMV675968 yielded a Survival of 1.74%.
With MMV675969 the Survival was 107%.
Work on MMV675993 yielded a Survival of 109%.
MMV675994 gave a Survival of 108%.
Work on MMV675995 yielded a Survival of 97.4%.
MMV675996 was tested, and the Survival was 94.3%.
MMV675997 was tested, and the Survival was 98.5%.
Substance MMV675998 has a Survival of 94.7%.
In the case of MMV676008, the Survival is reported as 116%.
MMV676048 gave a Survival of 94.4%.
Work on MMV676050 yielded a Survival of 95.8%.
For MMV676053, the Survival was 105%.
MMV676057 showed a Survival of 110%.
MMV676063 gave a Survival of 112%.
MMV676064 gave a Survival of 102%.
Work on MMV676159 yielded a Survival of 100%.
MMV676161 gave a Survival of 103%.
MMV676162 was tested, and the Survival was 112%.
MMV676182 showed a Survival of 104%.
MMV676186 gave a Survival of 98.8%.
Work on MMV676191 yielded a Survival of 105%.
MMV676204 was tested, and the Survival was 101%.
For MMV676260, the Survival was 97.1%.
Substance MMV676269 has a Survival of 104%.
Work on MMV676270 yielded a Survival of 102%.
With MMV676350 the Survival was 105%.
Substance MMV676358 has a Survival of 92.3%.
In the case of MMV676377, the Survival is reported as 77.7%.
With MMV676379 the Survival was 87.9%.
In the case of MMV676380, the Survival is reported as 86.9%.
MMV676382 was tested, and the Survival was 99%.
In the case of MMV676383, the Survival is reported as 79.3%.
MMV676384 gave a Survival of 101%.
Work on MMV676386 yielded a Survival of 90.1%.
In the case of MMV676388, the Survival is reported as 101%.
Work on MMV676389 yielded a Survival of 98.7%.
MMV676395 was tested, and the Survival was -0.21%.
With MMV676398 the Survival was 99.3%.
Substance MMV676401 has a Survival of 88%.
MMV676406 showed a Survival of 105%.
Substance MMV676409 has a Survival of 85.7%.
With MMV676411 the Survival was 98.2%.
MMV676412 was tested, and the Survival was 92.8%.
Substance MMV676431 has a Survival of 98.6%.
MMV676439 was tested, and the Survival was 34.7%.
With MMV676442 the Survival was 97.1%.
MMV676444 was tested, and the Survival was 97.5%.
MMV676445 showed a Survival of 74.2%.

The substances below were run on Mycobacterium tuberculosis (assay: as §1). Conditions: H37Rv.
Assay type: functional, organism-based
Parameters: conc 20 uM
Substance MMV659010 has a Survival of 85.6%.
For MMV661713, the Survival was 25.2%.
MMV663250 gave a Survival of 95.4%.
For MMV667494, the Survival was 84.1%.
With MMV668727 the Survival was 100%.
With MMV671636 the Survival was 95.9%.
With MMV675968 the Survival was 15%.
With MMV675969 the Survival was 95.8%.
Substance MMV675993 has a Survival of 92.9%.
Substance MMV675994 has a Survival of 81.9%.
With MMV675995 the Survival was 90.8%.
MMV675996 showed a Survival of 102%.
With MMV675997 the Survival was 99.4%.
MMV675998 gave a Survival of 89.7%.
MMV676008 was tested, and the Survival was 99.7%.
MMV676048 was tested, and the Survival was 90.5%.
MMV676050 showed a Survival of 84.8%.
MMV676053 was tested, and the Survival was 89.4%.
MMV676057 showed a Survival of 109%.
For MMV676063, the Survival was 91%.
With MMV676064 the Survival was 96.8%.
In the case of MMV676159, the Survival is reported as 99.4%.
MMV676161 showed a Survival of 80.2%.
MMV676162 gave a Survival of 93.3%.
Substance MMV676182 has a Survival of 91.4%.
MMV676186 gave a Survival of 94.5%.
MMV676191 was tested, and the Survival was 100%.
MMV676204 gave a Survival of 99.7%.
MMV676260 was tested, and the Survival was 84.8%.
Substance MMV676269 has a Survival of 88.8%.
Substance MMV676270 has a Survival of 82.7%.
For MMV676350, the Survival was 94.9%.
Substance MMV676358 has a Survival of 98.4%.
For MMV676377, the Survival was 50.2%.
Substance MMV676379 has a Survival of 98%.
MMV676380 gave a Survival of 97%.
Substance MMV676382 has a Survival of 88.4%.
Work on MMV676383 yielded a Survival of 1.2%.
For MMV676384, the Survival was 54.5%.
MMV676386 showed a Survival of 24%.
MMV676388 was tested, and the Survival was 87.4%.
With MMV676389 the Survival was 51.7%.
MMV676395 showed a Survival of 2.49%.
MMV676398 gave a Survival of 92%.
Substance MMV676401 has a Survival of 95.8%.
For MMV676406, the Survival was 67.8%.
MMV676409 was tested, and the Survival was 19.2%.
Work on MMV676411 yielded a Survival of 16.4%.
MMV676412 showed a Survival of 6.6%.
Substance MMV676431 has a Survival of 81.5%.
MMV676439 was tested, and the Survival was 91.7%.
MMV676442 showed a Survival of 86.8%.
With MMV676444 the Survival was 56.3%.
MMV676445 showed a Survival of 30%.

These substances were tested on Mycobacteroides abscessus (assay: as §1). Conditions: ATCC19977.
Assay type: functional, organism-based
Parameters: conc 20 uM
Work on MMV659010 yielded a Survival of 112%.
In the case of MMV661713, the Survival is reported as 112%.
MMV663250 gave a Survival of 104%.
MMV667494 was tested, and the Survival was 110%.
Work on MMV668727 yielded a Survival of 102%.
In the case of MMV671636, the Survival is reported as 112%.
MMV675968 was tested, and the Survival was 87.6%.
For MMV675969, the Survival was 93.7%.
Work on MMV675993 yielded a Survival of 102%.
In the case of MMV675994, the Survival is reported as 105%.
For MMV675995, the Survival was 111%.
Work on MMV675996 yielded a Survival of 94.2%.
In the case of MMV675997, the Survival is reported as 105%.
MMV675998 was tested, and the Survival was 117%.
In the case of MMV676008, the Survival is reported as 123%.
MMV676048 was tested, and the Survival was 114%.
MMV676050 gave a Survival of 110%.
For MMV676053, the Survival was 97.1%.
For MMV676057, the Survival was 109%.
MMV676063 showed a Survival of 105%.
Substance MMV676064 has a Survival of 117%.
For MMV676159, the Survival was 106%.
MMV676161 showed a Survival of 114%.
In the case of MMV676162, the Survival is reported as 117%.
With MMV676182 the Survival was 102%.
MMV676186 gave a Survival of 105%.
Substance MMV676191 has a Survival of 99.5%.
With MMV676204 the Survival was 107%.
Substance MMV676260 has a Survival of 108%.
In the case of MMV676269, the Survival is reported as 111%.
With MMV676270 the Survival was 108%.
MMV676350 showed a Survival of 116%.
With MMV676358 the Survival was 114%.
Substance MMV676377 has a Survival of 108%.
In the case of MMV676379, the Survival is reported as 116%.
With MMV676380 the Survival was 102%.
MMV676382 was tested, and the Survival was 122%.
MMV676383 gave a Survival of 110%.
MMV676384 gave a Survival of 109%.
Work on MMV676386 yielded a Survival of 107%.
Work on MMV676388 yielded a Survival of 110%.
MMV676389 was tested, and the Survival was 113%.
Work on MMV676395 yielded a Survival of 111%.
In the case of MMV676398, the Survival is reported as 111%.
For MMV676401, the Survival was 113%.
MMV676406 was tested, and the Survival was 111%.
Substance MMV676409 has a Survival of 122%.
With MMV676411 the Survival was 101%.
Substance MMV676412 has a Survival of 105%.
MMV676431 gave a Survival of 115%.
In the case of MMV676439, the Survival is reported as 114%.
Substance MMV676442 has a Survival of 123%.
With MMV676444 the Survival was 113%.
In the case of MMV676445, the Survival is reported as 111%.
